Data as given in ChEMBL document CHEMBL1201862, “PubChem BioAssay data set” (2004).
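Cultured in 96-well plates, cells were exposed to test compound for 48 hours across five concentrations. GI50 marks 50% less growth.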 Active and inactive are the calls of the source. Cut-off read from the data, not from the text of the source: active = GI50 up to about 1.1 µM and inactive = higher.

Tests used:
Experiment in all cases: inhibition of tumour cell growth, NCI panel, 48 h
[1] = tested on: HT-29
[2] = tested on: A498
[3] = tested on: SR
[4] = tested on: EKVX
[5] = tested on: SF-268
[6] = tested on: MOLT-4
[7] = tested on: NCI-H23
[8] = tested on: RPMI-8226
[9] = tested on: OVCAR-4
[10] = tested on: KM-20L2
[11] = tested on: HCT-116
[12] = tested on: OVCAR-5
[13] = tested on: K562
[14] = tested on: CCRF-CEM
[15] = tested on: HOP-62
[16] = tested on: OVCAR-3
[17] = tested on: IGROV-1
[18] = tested on: SNB-75
[19] = tested on: DMS-114
[20] = tested on: LOX IMVI
[21] = tested on: SK-MEL-5
[22] = tested on: ACHN
[23] = tested on: UACC-257
[24] = tested on: SN12C
[25] = tested on: OVCAR-8
[26] = tested on: M14
[27] = tested on: SF-295
[28] = tested on: SK-OV-3
[29] = tested on: HCC 2998
[30] = tested on: DMS-273
[31] = tested on: U-251
[32] = tested on: NCI-H460
[33] = tested on: SF-539
[34] = tested on: COLO 205
[35] = tested on: SK-MEL-28
[36] = tested on: TK-10
[37] = tested on: UO-31
[38] = tested on: XF498
[39] = tested on: SK-MEL-2
[40] = tested on: KM12
[41] = tested on: DLD-1
[42] = tested on: NCI-H226
[43] = tested on: HCT-15
[44] = tested on: SW-620
[45] = tested on: HOP-18
[46] = tested on: HL-60
[47] = tested on: RXF 393
[48] = tested on: A549
[49] = tested on: UACC-62
[50] = tested on: SNB-19
[51] = tested on: HOP-92
[52] = tested on: 786-0
[53] = tested on: LXFL 529
[54] = tested on: CAKI-1
[55] = tested on: M19-MEL
[56] = tested on: Malme-3M
[57] = tested on: NCI-H522
[58] = tested on: SNB-78

For `CC1CC2=C(S(=O)(=O)c3ccccc3)CC(S(=O)(=O)c3ccccc3)(S(=O)(=O)c3ccccc3)CC21` (stereo not given), the GI50 [1] was > 100 µM (inactive), the GI50 [2] was > 100 µM (inactive) and the GI50 [3] was > 100 µM (inactive). For the same molecule, the GI50 [4] was > 100 µM (inactive), the GI50 [5] was > 100 µM (inactive) and the GI50 [6] was > 100 µM (inactive). The GI50 [7] was > 100 µM (inactive), the GI50 [8] was 88.1 µM (inactive) and the GI50 [9] was > 100 µM (inactive). For the same molecule, the GI50 [10] was > 100 µM (inactive), the GI50 [11] was 21.9 µM (inactive) and the GI50 [12] was > 100 µM (inactive). For the same molecule, the GI50 [13] was 38.7 µM (inactive), the GI50 [14] was 27.4 µM (inactive) and the GI50 [15] was > 100 µM (inactive). The GI50 [16] was > 100 µM (inactive), the GI50 [17] was > 100 µM (inactive) and the GI50 [18] was 25.1 µM (inactive). For the same molecule, the GI50 [19] was 9.64 µM (inactive), the GI50 [20] was > 100 µM (inactive) and the GI50 [21] was > 100 µM (inactive). For the same molecule, the GI50 [22] was > 100 µM (inactive), the GI50 [23] was > 100 µM (inactive) and the GI50 [24] was > 100 µM (inactive). The GI50 [25] was > 100 µM (inactive), the GI50 [26] was > 100 µM (inactive) and the GI50 [27] was > 100 µM (inactive). The GI50 [28] was > 100 µM (inactive), the GI50 [29] was > 100 µM (inactive) and the GI50 [30] was > 100 µM (inactive). For the same molecule, the GI50 [31] was 72.6 µM (inactive), the GI50 [32] was > 100 µM (inactive) and the GI50 [33] was > 100 µM (inactive). The GI50 [34] was > 100 µM (inactive), the GI50 [35] was > 100 µM (inactive) and the GI50 [36] was > 100 µM (inactive). For the same molecule, the GI50 [37] was > 100 µM (inactive), the GI50 [38] was > 100 µM (inactive) and the GI50 [39] was > 100 µM (inactive). For the same molecule, the GI50 [40] was > 100 µM (inactive), the GI50 [41] was > 100 µM (inactive) and the GI50 [42] was > 100 µM (inactive). For the same molecule, the GI50 [43] was greater than 100 µM, the GI50 [44] was > 100 µM (inactive) and the GI50 [45] was > 100 µM (inactive). The GI50 [46] was 16.6 µM (inactive), the GI50 [47] was > 100 µM (inactive) and the GI50 [48] was > 100 µM (inactive). The GI50 [49] was > 100 µM (inactive) and the GI50 [50] was > 100 µM (inactive).

For `Cc1ccc(C(=O)O/N=C2/CCCC/C2=C\c2ccccc2)cc1`, the GI50 [1] was 43.5 µM (inactive), the GI50 [3] was > 100 µM (inactive) and the GI50 [4] was > 100 µM (inactive). For the same molecule, the GI50 [5] was 13.2 µM (inactive), the GI50 [7] was 29.4 µM (inactive) and the GI50 [8] was 77.8 µM (inactive). The GI50 [9] was 36.9 µM (inactive), the GI50 [10] was 83.9 µM (inactive) and the GI50 [51] was 54.5 µM (inactive). For the same molecule, the GI50 [11] was 16.4 µM (inactive), the GI50 [12] was 81.1 µM (inactive) and the GI50 [13] was 19.2 µM (inactive). The GI50 [14] was 29.2 µM (inactive), the GI50 [15] was > 100 µM (inactive) and the GI50 [52] was > 100 µM (inactive). For the same molecule, the GI50 [16] was 38.1 µM (inactive), the GI50 [17] was 42.9 µM (inactive) and the GI50 [18] was 33.5 µM (inactive). The GI50 [53] was 16.9 µM (inactive), the GI50 [20] was 20.1 µM (inactive) and the GI50 [21] was 37.2 µM (inactive). For the same molecule, the GI50 [22] was 27.2 µM (inactive), the GI50 [23] was > 100 µM (inactive) and the GI50 [24] was 80.9 µM (inactive). The GI50 [25] was 37.2 µM (inactive), the GI50 [26] was > 100 µM (inactive) and the GI50 [27] was 39.2 µM (inactive). The GI50 [28] was > 100 µM (inactive), the GI50 [29] was > 100 µM (inactive) and the GI50 [30] was 27.7 µM (inactive). The GI50 [54] was 63.2 µM (inactive), the GI50 [31] was 38.3 µM (inactive) and the GI50 [32] was > 100 µM (inactive). For the same molecule, the GI50 [33] was 45.1 µM (inactive), the GI50 [34] was 95.3 µM (inactive) and the GI50 [35] was 12.7 µM (inactive). For the same molecule, the GI50 [55] was 67.9 µM (inactive), the GI50 [36] was > 100 µM (inactive) and the GI50 [56] was 14.4 µM (inactive). For the same molecule, the GI50 [37] was 17.7 µM (inactive), the GI50 [38] was 39.4 µM (inactive) and the GI50 [39] was > 100 µM (inactive). The GI50 [40] was 73.6 µM (inactive), the GI50 [41] was 78.5 µM (inactive) and the GI50 [57] was 16.6 µM (inactive). The GI50 [42] was > 100 µM (inactive), the GI50 [43] was 32.4 µM and the GI50 [44] was 34 µM (inactive). The GI50 [45] was > 100 µM (inactive), the GI50 [58] was 15.6 µM (inactive) and the GI50 [46] was 19.7 µM (inactive). For the same molecule, the GI50 [47] was 38.6 µM (inactive), the GI50 [48] was 19.5 µM (inactive) and the GI50 [49] was 41.5 µM (inactive). For the same molecule, the GI50 [50] was > 100 µM (inactive).
